Measured values reported in patent US20180071317A1, “USE OF AGENTS THAT ALTER THE PERITUMORAL ENVIRONMENT FOR THE TREATMENT OF CANCER” (SERVICIO ANDALUZ DE SALUD, priority 2011, published 2018).

Assays:
[1] = test system: fibroblasts (PHF) co-cultivated with tumor cell lymphoblastic leukemia B (SDI); experiment: Marker expression (IHC) in PHF co-cultured with SDI tumor cells; format: cell-based, human; conditions: PHF co-cultivated with SDI + SP
Description: (§1) All cultures were maintained 48 hours, following which the same cells were included in paraffin blocks for subsequent analysis of the expression of different markers by immunohistochemistry (see Example 1). […] All experiments were carried out sixfold. Analyzed markers in fibroblast cells (stromal cells) were: TGF-α, TGF-β1, TGF-β2, TGF-β3, SPARC, MMP-3, MMP-7, MMP-9, MMP-11, MMP-13 and MMP-14.

[2] = test system: fibroblasts (PHF) co-cultured with tumor cells, thyroid carcinoma; experiment: Marker expression (IHC) in PHF co-cultured with thyroid carcinoma tumor cells; format: cell-based, human; conditions: co-culture with thyroid carcinoma cells; SP 1 μM; 48 h;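 also: grown in fresh plasma from a healthy human donor, read-out is percent of fibroblasts positive for each marker, compared with fibroblasts cultured alone, run in six replicates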
Description: as §1

[3] = test system: fibroblasts (PHF) co-cultured with tumor cells, thyroid carcinoma (reference A-427); experiment: as above; format: cell-based, human; conditions: co-culture with thyroid carcinoma cells; SP 1 μM; 48 h
Description: as §1

[4] = test system: leukocyte cells (mono and polymorphonuclear) in co-culture with cells isolated from primary human tumors; experiment: Marker expression (IHC) in leukocytes co-cultured with primary human tumor cells (colon, pancreatic, lung carcinoma, glioma, melanoma); format: cell-based; conditions: SP 1 μM;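 also: tumor cells and leukocytes came from the same patients, co-culture contents were paraffin-embedded for immunohistochemistry with antibodies to TGF-β2 or NF-kB, leukocytes cultured alone served as control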
Description: To check that the interaction of the human primary tumor cells with cells of the immune/inflammatory (mono and polymorphonuclear leukocytes) cells, stimulates the secretion of substances of importance for survival and tumor progression, cultures were carried out using sets of immune cells/inflammatory (mono and polymorphonuclear leukocytes) with tumor cells obtained directly from primary human tumors of the same patients.
The same method described in Example 7 and 9 was used to obtain tumor cells from primary human tumors. Similarly cultured immune cells/inflammatory (mono and polymorphonuclear leukocytes) were used as control and secondly, cultured tumor cells isolated from patients in the presence of immune cells/inflammatory (mono and polymorphonuclear leukocytes).
Then, paraffin blocks were prepared with the contents of each of the groups mentioned previously for expression studies using immunohistochemistry. On this occasion, in order to identify the secretion of substances with importance for the survival and progression of tumor the following markers were analyzed: TGF-β2 (SAB4502956) and NF-kB (SAB4501992) using specific antibodies against them. All antibodies used were rabbit polyclonal antibodies obtained from Sigma Aldrich and were used at a concentration of 1/1000. Immunohistochemical techniques were performed and evaluated as described in previous examples.

[5] = test system: fibroblasts (PHF) co-cultured with tumor cells, ovarian carcinoma (EFO-27); experiment: Marker expression (IHC) in PHF co-cultured with EFO-27 tumor cells; format: cell-based, human; conditions: co-culture with EFO-27; SP 1 μM; 48 h;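 also: values are the percentage of PHF fibroblasts positive for each marker, cultured in fresh plasma from a healthy human donor, each experiment run in six replicates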
Description: as §1

[6] = test system: fibroblast cells in co-culture with cells isolated from primary human tumors; experiment: Marker expression (IHC) in fibroblasts co-cultured with primary human tumor cells (colon, pancreatic, lung carcinoma, glioma, multiple myeloma); format: cell-based
Description: To check that the interaction of the human primary tumor cells with stromal cells, [human fibroblasts,] stimulates the secretion of substances of importance for survival and tumor progression, co-cultures were performed using stromal cells with human fibroblast-tumor cells obtained directly from primary human tumors.
On this occasion, in order to identify, using immunohistochemical techniques, the secretion of substances of importance for the survival and progression of tumors, the following antibodies were used: TGF-α (SAB4502953), TGF-β1 (SAB4502954), TGF-β2 (SAB4502956), TGF-β3 (SAB4502957), SPARC (HPA002989), MMP-3 (HPA007875), MMP-7 (SAB4501894), MMP-9 (SAB4501896), MMP-11 (SAB4501898) MMP-13 (SAB4501900) and MMP-14 (SAB4501901) using specific antibodies against them. All antibodies used were rabbit polyclonal antibodies obtained from Sigma-Aldrich and were used at a concentration of 1/1000 to achieve these immunohistochemical studies. All experiments were carried out sixfold.

[7] = test system: fibroblasts (PHF) co-cultured with tumor cells of human pancreatic adenocarcinoma (CAPAN-1); experiment: Marker expression (IHC) in PHF co-cultured with CAPAN-1 tumor cells; format: cell-based; conditions: co-culture with CAPAN-1; SP 1 μM; 48 h;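 also: cultures grown in fresh plasma from a healthy human donor, run in six replicates, value is percent of fibroblasts positive for each marker, compared with fibroblasts cultured alone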
Description: (§2) All cultures were maintained 48 hours, following which the same cells were included in paraffin blocks for subsequent analysis of the expression of different markers by immunohistochemistry (see Example 1). The primary antibodies used to perform immunohistochemical assays and their concentration are detailed in Example 2. All experiments were carried out sixfold. Analyzed markers in fibroblast cells (stromal cells) were: TGF-α, TGF-β1, TGF-β2, TGF-β3, SPARC, MMP-3, MMP-7, MMP-9, MMP-11, MMP-13 and MMP-14.

[8] = test system: fibroblasts (PHF) co-cultured with human glioma tumor cells (GAMG); experiment: Marker expression (IHC) in PHF co-cultured with GAMG tumor cells; format: cell-based; conditions: co-culture with GAMG; SP 1 μM; 48 h;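 also: percentage of PHF fibroblasts positive for each marker, cultured in fresh plasma from a healthy donor, six replicates, with fibroblasts cultured alone as reference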
Description: as §1

[9] = test system: fibroblasts (PHF) cells co-cultured with human T lymphoma tumor (DERL-7); experiment: Marker expression (IHC) in PHF co-cultured with DERL-7 tumor cells; format: cell-based; conditions: PHF co-cultured with DERL-7 + SP
Description: as §2

[10] = co-culture with cells isolated from colon carcinoma
[11] = co-culture with cells isolated from glioma
[12] = co-culture with cells isolated from lung carcinoma
[13] = co-culture with cells isolated from melanoma
[14] = co-culture with cells isolated from pancreatic carcinoma
[15] = Primary tumor cells (colon carcinoma) co-cultured + fibroblast + SP (1 μM)
[16] = co-culture with cells isolated from glioma, SP 1 μM
[17] = co-culture with cells isolated from lung cancer, SP 1 μM
[18] = co-culture with cells isolated from multiple myeloma, SP 1 μM
[19] = co-culture with cells isolated from pancreatic carcinoma, SP 1 μM

Compound: CSCC[C@H](NC(=O)[C@H](CC(C)C)NC(=O)CNC(=O)[C@H](Cc1ccccc1)NC(=O)[C@H](Cc1ccccc1)NC(=O)[C@H](CCC(N)=O)NC(=O)[C@H](CCC(N)=O)NC(=O)[C@@H]1CCCN1C(=O)[C@H](CCCCN)NC(=O)[C@@H]1CCCN1C(=O)[C@@H](N)CCCNC(=N)N)C(N)=O [SP]
- cells expressing MMP-3 [1]: 53.4 ± 5.7%
- cells expressing MMP-7 [1]: 59.1 ± 4.8%
- cells expressing MMP-9 [1]: 59.3 ± 3.4%
- cells expressing MMP-11 [1]: 47.4 ± 4.8%
- cells expressing MMP-13 [1]: 49.5 ± 6.5%
- cells expressing MMP-14 [1]: 53.9 ± 5.5%
- cells expressing SPARC [1]: 56 ± 6.2%
- cells expressing TGF-α [1]: 41.4 ± 3.1%
- cells expressing TGF-β1 [1]: 42.5 ± 4.2%
- cells expressing TGF-β2 [1]: 50.5 ± 1.1%
- cells expressing TGF-β3 [1]: 51.4 ± 5.5%
- PHF cells expressing MMP-11 [2]: 29.4 ± 3.8%
- PHF cells expressing MMP-3 [3]: 43.1 ± 1.7%
- PHF cells expressing MMP-7 [3]: 56.4 ± 3.8%
- PHF cells expressing MMP-9 [3]: 51.4 ± 3.4%
- PHF cells expressing MMP-13 [3]: 4.25 ± 3.6%
- PHF cells expressing MMP-14 [3]: 49.1 ± 3.6%
- PHF cells expressing SPARC [3]: 48.1 ± 1.3%
- PHF cells expressing TGF-α [3]: 42.4 ± 1.2%
- PHF cells expressing TGF-β1 [3]: 33.7 ± 1.3%
- PHF cells expressing TGF-β2 [3]: 42.6 ± 1.1%
- PHF cells expressing TGF-β3 [3]: 42.1 ± 1.5%
- Percentage of mononuclear leukocytes cells which expressed NF-kB [4, 10]: 47.5 ± 4.6%
- Percentage of mononuclear leukocytes cells which expressed TGF-β [4, 10]: 36.5 ± 3.5%
- Percentage of polymorphonuclear leukocytes cells which expressed NF-kB [4, 10]: 36.6 ± 4.7%
- Percentage of polymorphonuclear leukocytes cells which expressed TGF-β [4, 10]: 45.8 ± 3.5%
- Percentage of mononuclear leukocytes cells expressing NF-kB [4, 11]: 41.6 ± 4.1%
- Percentage of mononuclear leukocytes cells expressing TGF-β [4, 11]: 41.7 ± 3.4%
- Percentage of polymorphonuclear leukocytes cells expressing NF-kB [4, 11]: 39.4 ± 4.2%
- Percentage of polymorphonuclear leukocytes cells expressing TGF-β [4, 11]: 39.7 ± 3.3%
- Percentage of mononuclear leukocytes cells which expressed NF-kB [4, 12]: 41.6 ± 4.2%
- Percentage of mononuclear leukocytes cells which expressed TGF-β [4, 12]: 42.7 ± 3.3%
- Percentage of polymorphonuclear leukocytes cells which expressed NF-kB [4, 12]: 35.5 ± 4.2%
- Percentage of polymorphonuclear leukocytes cells which expressed TGF-β [4, 12]: 38.7 ± 3.3%
- Percentage of mononuclear leukocytes cells which expressed NF-kB [4, 13]: 51.7 ± 5.3%
- Percentage of mononuclear leukocytes cells which expressed TGF-β [4, 13]: 49.6 ± 4.2%
- Percentage of polymorphonuclear leukocytes cells which expressed NF-kB [4, 13]: 56.6 ± 4.6%
- Percentage of polymorphonuclear leukocytes cells which expressed TGF-β [4, 13]: 54.5 ± 3.5%
- Percentage of mononuclear leukocytes cells which expressed TGF-β [4, 14]: 39.5 ± 4.5%
- Percentage of polymorphonuclear leukocytes cells which expressed NF-kB [4, 14]: 35.4 ± 4.2%
- Percentage of polymorphonuclear leukocytes cells which expressed TGF-β [4, 14]: 36.5 ± 3.1%
- PHF cells expressing MMP-3 [5]: 44.4 ± 1.5%
- PHF cells expressing MMP-7 [5]: 55.1 ± 2.6%
- PHF cells expressing MMP-9 [5]: 56.6 ± 1.7%
- PHF cells expressing MMP-11 [5]: 22.4 ± 2.6%
- PHF cells expressing MMP-13 [5]: 55 ± 2.5%
- PHF cells expressing MMP-14 [5]: 46.2 ± 2.5%
- PHF cells expressing SPARC [5]: 46 ± 2.2%
- PHF cells expressing TGF-α [5]: 37.2 ± 2.1%
- PHF cells expressing TGF-β1 [5]: 35.5 ± 2.1%
- PHF cells expressing TGF-β2 [5]: 45.4 ± 1.2%
- PHF cells expressing TGF-β3 [5]: 42 ± 1.6%
- Percentage of fibroblast cells which expressed MMP-3 [6, 15]: 47.4 ± 2.4%
- Percentage of fibroblast cells which expressed MMP-7 [6, 15]: 55.1 ± 3.6%
- Percentage of fibroblast cells which expressed MMP-9 [6, 15]: 54.7 ± 4.5%
- Percentage of fibroblast cells which expressed MMP-11 [6, 15]: 28.4 ± 4.4%
- Percentage of fibroblast cells which expressed MMP-13 [6, 15]: 43.4 ± 4.6%
- Percentage of fibroblast cells which expressed MMP-14 [6, 15]: 48.6 ± 5.6%
- Percentage of fibroblast cells which expressed SPARC [6, 15]: 47 ± 2.7%
- Percentage of fibroblast cells which expressed TGFα [6, 15]: 45.5 ± 4.2%
- Percentage of fibroblast cells which expressed TGFβ1 [6, 15]: 35.3 ± 2.3%
- Percentage of fibroblast cells which expressed TGFβ2 [6, 15]: 44.5 ± 3.6%
- Percentage of fibroblast cells which expressed TGFβ3 [6, 15]: 45 ± 3.9%
- Percentage of fibroblast cells which expressed MMP-3 [6, 16]: 48.4 ± 5.1%
- Percentage of fibroblast cells which expressed MMP-7 [6, 16]: 59.4 ± 5.7%
- Percentage of fibroblast cells which expressed MMP-9 [6, 16]: 55.5 ± 4.5%
- Percentage of fibroblast cells which expressed MMP-11 [6, 16]: 28.9 ± 4.7%
- Percentage of fibroblast cells which expressed MMP-13 [6, 16]: 48.0 ± 5.6%
- Percentage of fibroblast cells which expressed MMP-14 [6, 16]: 46.3 ± 3.6%
- Percentage of fibroblast cells which expressed SPARC [6, 16]: 56.2 ± 4.2%
- Percentage of fibroblast cells which expressed TGFα [6, 16]: 38.4 ± 2.3%
- Percentage of fibroblast cells which expressed TGFβ1 [6, 16]: 35.4 ± 2.6%
- Percentage of fibroblast cells which expressed TGFβ2 [6, 16]: 42.4 ± 4.2%
- Percentage of fibroblast cells which expressed TGFβ3 [6, 16]: 52.1 ± 3.7%
- Percentage of fibroblast cells which expressed MMP-3 [6, 17]: 51.5 ± 5.8%
- Percentage of fibroblast cells which expressed MMP-7 [6, 17]: 54.4 ± 6.3%
- Percentage of fibroblast cells which expressed MMP-9 [6, 17]: 56.5 ± 4.6%
- Percentage of fibroblast cells which expressed MMP-11 [6, 17]: 38.6 ± 3.4%
- Percentage of fibroblast cells which expressed MMP-13 [6, 17]: 46.3 ± 3.4%
- Percentage of fibroblast cells which expressed MMP-14 [6, 17]: 47.6 ± 5.6%
- Percentage of fibroblast cells which expressed SPARC [6, 17]: 47.3 ± 4.2%
- Percentage of fibroblast cells which expressed TGFα [6, 17]: 37.5 ± 2.3%
- Percentage of fibroblast cells which expressed TGFβ1 [6, 17]: 37.3 ± 3.3%
- Percentage of fibroblast cells which expressed TGFβ2 [6, 17]: 52.3 ± 2.8%
- Percentage of fibroblast cells which expressed TGFβ3 [6, 17]: 46.1 ± 4.3%
- Percentage of fibroblast cells which expressed MMP-3 [6, 18]: 46.6 ± 5.7%
- Percentage of fibroblast cells which expressed MMP-7 [6, 18]: 57.6 ± 4.1%
- Percentage of fibroblast cells which expressed MMP-9 [6, 18]: 57.3 ± 4.5%
- Percentage of fibroblast cells which expressed MMP-11 [6, 18]: 29.4 ± 3.1%
- Percentage of fibroblast cells which expressed MMP-13 [6, 18]: 47.5 ± 4.3%
- Percentage of fibroblast cells which expressed MMP-14 [6, 18]: 47.2 ± 3.4%
- Percentage of fibroblast cells which expressed SPARC [6, 18]: 46.3 ± 3.2%
- Percentage of fibroblast cells which expressed TGFα [6, 18]: 49.3 ± 3.3%
- Percentage of fibroblast cells which expressed TGFβ1 [6, 18]: 45.6 ± 4.2%
- Percentage of fibroblast cells which expressed TGFβ2 [6, 18]: 52.3 ± 3.2%
- Percentage of fibroblast cells which expressed TGFβ3 [6, 18]: 47.4 ± 3.5%
- Percentage of fibroblast cells which expressed MMP-3 [6, 19]: 47.5 ± 6.1%
- Percentage of fibroblast cells which expressed MMP-7 [6, 19]: 56.6 ± 5.1%
- Percentage of fibroblast cells which expressed MMP-9 [6, 19]: 54.1 ± 5.2%
- Percentage of fibroblast cells which expressed MMP-11 [6, 19]: 27.1 ± 6.2%
- Percentage of fibroblast cells which expressed MMP-13 [6, 19]: 57.2 ± 4.7%
- Percentage of fibroblast cells which expressed MMP-14 [6, 19]: 46.2 ± 5.1%
- Percentage of fibroblast cells which expressed SPARC [6, 19]: 43.7 ± 4.5%
- Percentage of fibroblast cells which expressed TGFα [6, 19]: 44.2 ± 4.5%
- Percentage of fibroblast cells which expressed TGFβ2 [6, 19]: 43.6 ± 7.4%
- Percentage of fibroblast cells which expressed TGFβ3 [6, 19]: 45.4 ± 5.6%
- PHF cells expressing MMP-3 [7]: 44.4 ± 1.6%
- PHF cells expressing MMP-7 [7]: 58.2 ± 2.4%
- PHF cells expressing MMP-9 [7]: 56.4 ± 1.5%
- PHF cells expressing MMP-11 [7]: 25.3 ± 1.5%
- PHF cells expressing MMP-13 [7]: 55 ± 3.6%
- PHF cells expressing MMP-14 [7]: 47.2 ± 4.7%
- PHF cells expressing SPARC [7]: 49 ± 1.4%
- PHF cells expressing TGF-α [7]: 42.4 ± 2.1%
- PHF cells expressing TGF-β1 [7]: 37.6 ± 1.4%
- PHF cells expressing TGF-β2 [7]: 42.4 ± 6.1%
- PHF cells expressing TGF-β3 [7]: 43 ± 2.6%
- PHF cells expressing MMP-3 [8]: 43.4 ± 2.8%
- PHF cells expressing MMP-7 [8]: 57.1 ± 3.8%
- PHF cells expressing MMP-9 [8]: 52.3 ± 2.4%
- PHF cells expressing MMP-11 [8]: 27.5 ± 3.8%
- PHF cells expressing MMP-13 [8]: 45.4 ± 3.6%
- PHF cells expressing MMP-14 [8]: 49.3 ± 3.5%
- PHF cells expressing SPARC [8]: 51.2 ± 3.3%
- PHF cells expressing TGF-α [8]: 42.5 ± 3.1%
- PHF cells expressing TGF-β1 [8]: 33.6 ± 3.1%
- PHF cells expressing TGF-β2 [8]: 40.7 ± 2.1%
- PHF cells expressing TGF-β3 [8]: 51 ± 1.6%
- cells expressing MMP-3 [9]: 63.4 ± 3.7%
- cells expressing MMP-7 [9]: 66.1 ± 4.8%
- cells expressing MMP-9 [9]: 62.3 ± 3.4%
- cells expressing MMP-11 [9]: 67.8 ± 4.8%
- cells expressing MMP-13 [9]: 61 ± 5.3%
- cells expressing MMP-14 [9]: 58.4 ± 3.5%
- cells expressing SPARC [9]: 67 ± 4.2%
- cells expressing TGF-α [9]: 62.5 ± 3.1%
- cells expressing TGF-β1 [9]: 64.5 ± 4.3%
- cells expressing TGF-β2 [9]: 70.6 ± 4.1%
- cells expressing TGF-β3 [9]: 61 ± 5.6%
